“Also recorded” adds a separate entry of the source. Like-named read-outs stand apart in the source and are kept apart here.
Experiments:
Male Sprague Dawley rats = assay: Forced Swim Test (Acute), FST; format: in vivo; conditions: p.o.
Method: The Forced Swim test (FST) is a commonly used procedure to screen compounds for possible antidepressant properties. This test is also known as the behavioral despair test. Rodents placed in […] tanks filled with water present a wide variety of escape or immobility behaviors. Antidepressant drugs from different classes markedly increase escape behaviors and/or decrease latency or duration of immobility.
Venlafaxine and desipramine were dissolved in water. All drugs and their vehicles were administered orally (p.o.) by gavage in a volume of 5 mL/kg.
Male Sprague Dawley rats (140 to 160 g) from Charles River Laboratories Wilmington, Mass. were used. The animals went through a five-day quarantine period before being subjected to the experimental procedure.
Animals were housed in groups of four in plastic cages at an ambient temperature of 21° C. to 23° C. with an automated 12 hour light/dark cycle and access to water and commercial rodent food ad libitum. Animals were not handled more than for the routine bedding change prior to pre-test swim session.
Each experiment consisted of seven treatment groups with n=4 animals per group. A total of 28 animals per experiment were used. Two consecutive experiments (1 and 2, 3 and 4, and 5 and 6) were exact replicas of each other. […] One treatment group of n=4 animals in each experiment was a vehicle treated group. […] In experiments 5 and 6 the effects of venlafaxine and maprotyline at 12 mg/kg, 30 mg/kg, and 60 mg/kg were tested.
The basic apparatus consisted of a cylinder (46 cm tall×˜20 cm diameter) filled with water to 30 cm deep, at a temperature of 25±1° C. The automated version of the FST was used to perform the experiments. Plumbing for automatic filling and emptying water connected the four cylinders. Cylinders were placed in the dividing chambers 25 cm wide to separate animals visually. Each 5-minute experimental session was videotaped and analyzed in real time by computer software (Clever Systems, Inc.) for four animals at a time. The immobility, swimming, climbing and escape times were recorded by the software. The four activities are defined as follow. Immobility: the animal floats motionlessly or makes only those movements necessary to keep its head above water; Climb: the animal vigorously moves vertically while scratching the wall around the cylinder; Swim: the animal moves horizontally around in the cylinder more than necessary to keep its head above water; and Escape: sum of all vigorous active movements.
The ability of a test compound to decrease the duration or frequency of immobility, or changes in swimming, climbing and escape times, was measured using the FST procedure described above. […] The analysis of the results in the studies described was focused on the immobility time during 5-minute test session.
There were two swim sessions in each experiment. First, a pre-test swim session for 15 minutes was performed. Following 48 hours later was a test session of 5-minute duration. Upon completion of a swim session, each animal was placed under a heat lamp in a cage with soft bedding for approximately 15 minutes to prevent hypothermia.
Animals were pre-treated with a vehicle or test compound after completing the pre-test swim session, then 24 hours later and then shortly prior to the 5-minute test session; i.e., three injections were given to each animal between the two swim sessions that occurred on 3 consecutive days.
(§1) Data were analyzed using GraphPad Prism software (GraphPad Software, Inc. San Diego, Calif.). For the comparison of the effect of different doses for various drugs on immobility in the FST one-way ANOVA was used followed by Dunnett's multiple comparison test. […] The ED50 and Emax values were statistically compared using two-tail t-test.

CH3/HeJ mice = assay: Mouse Tail Suspension Assay (Acute), TST; format: in vivo; conditions: p.o.; for ED50: Mus musculus, po, 7 min, 7-min session
Method: In the tail suspension test (TST) for evaluating compounds for anti-depressant activity, mice are suspended by their tails to a metal or plastic rod using clip or scotch tape. The test is usually quite short, 5-7 min, and the amount of time the mice spend immobile is recorded either manually or with an automated device. Agents which have antidepressant activity, decrease the duration of immobility of mice in this test.
The basic apparatus for the tail suspension assay consisted of a yellow plastic chamber (91×45×10 cm) divided for four arenas 25, 20, 20 and 25 cm wide separated by yellow plastic walls 0.75 cm thick. Mice were suspended by their tails using a rubber clip (7 cm long) attached to the plastic rod that was placed on the top of a testing chamber half way through its deep dimension. Each experimental session was videotaped and analyzed for four animals in the real time by computer software (“Depression Scan” Clever Sys Inc.). The computer justification of immobility was calibrated with the use of animals dosed with lorazepam while justification of movement was calibrated with the high dose of desipramine treated animals. Control, vehicle treated animals and animals treated with Compound #8 were analyzed under the calibrated settings. The settings were adjusted separately for dark (CH3/HeJ and C57Bl/6J strains) and white mice (Balb/cJ and A/J strains). A yellow background was used for dark mice and a blue background was used to record movements of white mice.
The ability of a test compound to decrease the duration of immobility, or increase mobility was measured using the TST procedure described above. Acute treatment with clinically effective antidepressants and/or novel compounds that have potential antidepressant properties decrease the duration of immobility and at the same time increases mobility in the TST.
as §1, with “TST” for “FST”, “analyses of variance (ANOVA) were” for “ANOVA was”, “were” for “were statistically”, “two-way ANOVA and Bonferroni post-hoc test.” for “two-tail t-test.”
Positive controls included duloxetine (DLX), venlafaxine (VLX)and desipramine (DMI) which were dissolved in 0.5% methylcellulose and lorazepam (LOR) which was suspended in 0.5% of methylcellulose in water by sonication. All drugs and vehicles were administered orally (p.o.) by gavage in a volume of 10 mL/kg.
The mice were ordered 5 weeks old and at the beginning of experiment their weight was 20±5 g. Animals were housed in groups of four in plastic cages at an ambient temperature of 21° C. to 23° C. with an automated 12/12 hours light/dark cycle and access to water and a commercial rodent food ad libitum.
Each experiment consisted of seven treatment groups with four animals per group. A total of 28 animals per experiment were used. Every two consecutive experiments (1 & 2, 3 & 4, 5 & 6 and 7 & 8) were exact replicas of each other. […] One treatment group of four animals in each experiment was a vehicle treated group. In addition to the vehicle treated group, the effects of DMI at 6 mg/kg, 12 mg/kg, 30 mg/kg, 60 mg/kg and 120 mg/kg and LOR at 5 mg/kg were tested in experiments 1 and 2. […] In experiments 5 and 6 the effects of DLX at 6 mg/kg, 12 mg/kg, 30 mg/kg, 60 mg/kg, 120 mg/kg and LOR at 5 mg/kg were tested. […]

`NS(=O)(=O)NC[C@H]1COc2cc(Cl)ccc2O1` [Compound #8, (2S)-(−)-N-(6-Chloro-2,3-dihydro-benzo[1,4]dioxin-2-ylmethyl)-sulfamide] was tested, and the ED50 (Male Sprague Dawley rats; Rattus norvegicus, po, 5 min, three administrations, 5-minute test session, read-out: ED50 (immobility)) was 5.6 ± 0.6 mg/kg, the “effect in the FST (immobility time)” value (Male Sprague Dawley rats; 5-minute testing session) was “antidepressant-like activity in the FST” and the “Emax (immobility)” value (Male Sprague Dawley rats; immobility) was 67.0 ± 11.6 s. For the same molecule, the ED50 (CH3/HeJ mice; read-out: Immobility ED50) was 5.6 mg/kg, the ED50 (CH3/HeJ mice; read-out: Mobility ED50) was 3.6 ± 2.9 mg/kg and the “effect on immobility and mobility time in TST” value (CH3/HeJ mice; 7-min testing session) was “decreased immobility time and increased mobility time; also recorded: antidepressant-like activity”.

Source: patent US20070155827A1, “USE OF BENZO-FUSED HETEROCYCLE SULFAMIDE DERIVATIVES FOR THE TREATMENT OF DEPRESSION” (priority 2005, published 2007)
